The target in one assay is Cytochrome P450 2C19 (Homo sapiens, UniProt P33261). The experiment in a line: Cytochrome panel assay with activity outcomes. Panel member name: p450-cyp2c19 Compounds with AC50 equal or less than 10 uM are considered active. Type of assay: functional. The note with it: read-out: AC50.
Another assay deals with Cytochrome P450 2D6 (Homo sapiens, UniProt P10635).
For the next assay, the target named is T1, Cytochrome P450 1A2 (Homo sapiens, UniProt P05177).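 Also: PubChem cytochrome P450 panel assay, CYP1A2 panel member.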
T1 sequence (P05177 whole entry): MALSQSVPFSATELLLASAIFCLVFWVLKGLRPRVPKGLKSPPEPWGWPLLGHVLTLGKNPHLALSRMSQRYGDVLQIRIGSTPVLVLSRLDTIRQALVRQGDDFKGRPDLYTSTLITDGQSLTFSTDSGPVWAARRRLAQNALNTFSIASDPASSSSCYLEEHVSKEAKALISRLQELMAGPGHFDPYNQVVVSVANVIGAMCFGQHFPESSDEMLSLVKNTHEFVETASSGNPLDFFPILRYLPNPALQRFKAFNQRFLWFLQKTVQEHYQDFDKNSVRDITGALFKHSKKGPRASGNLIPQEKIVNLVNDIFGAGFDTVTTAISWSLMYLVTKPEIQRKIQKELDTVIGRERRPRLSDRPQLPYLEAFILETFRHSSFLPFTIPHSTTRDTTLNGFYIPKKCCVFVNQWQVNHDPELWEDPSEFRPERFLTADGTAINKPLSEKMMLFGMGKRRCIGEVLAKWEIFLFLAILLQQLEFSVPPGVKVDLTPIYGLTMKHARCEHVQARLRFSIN

The nature of assay [1]: Luminescence Cell-Based Dose Confirmation HTS to Identify Activators of 5'UTR Stem-Loop Driven Alpha-Synuclein mRNA Translation in H4 Neuroglioblastoma Cells. [Related pubchem assays: 1829 (Project Summary), 1814 (Primary HTS)]. The class given is functional.
Assay [2] is described as follows: Luminescence Cell-Based Dose Response HTS to Identify Activators of Luciferase Translation or Activity in H4 […] Cells. [Related pubchem assays: 1829 (Project Summary), 1814 (Primary HTS)]. The class given is functional.
For a further assay, the system named is H4. The experiment in a line: Luminescence Cell-Based Dose Response HTS to Identify Activators of 5'UTR Stem-Loop Driven Prion Protein mRNA Translation in H4 Neuroglioblastoma Cells. [Related pubchem assays: 1829 (Project Summary), 1814 (Primary HTS)]. The note with it: Homo sapiens. The class given is functional.
In assay [3] the target is T2, Rac GTPase-activating protein 1 (Homo sapiens, UniProt Q9H0H5).
T2 sequence (Q9H0H5 whole entry): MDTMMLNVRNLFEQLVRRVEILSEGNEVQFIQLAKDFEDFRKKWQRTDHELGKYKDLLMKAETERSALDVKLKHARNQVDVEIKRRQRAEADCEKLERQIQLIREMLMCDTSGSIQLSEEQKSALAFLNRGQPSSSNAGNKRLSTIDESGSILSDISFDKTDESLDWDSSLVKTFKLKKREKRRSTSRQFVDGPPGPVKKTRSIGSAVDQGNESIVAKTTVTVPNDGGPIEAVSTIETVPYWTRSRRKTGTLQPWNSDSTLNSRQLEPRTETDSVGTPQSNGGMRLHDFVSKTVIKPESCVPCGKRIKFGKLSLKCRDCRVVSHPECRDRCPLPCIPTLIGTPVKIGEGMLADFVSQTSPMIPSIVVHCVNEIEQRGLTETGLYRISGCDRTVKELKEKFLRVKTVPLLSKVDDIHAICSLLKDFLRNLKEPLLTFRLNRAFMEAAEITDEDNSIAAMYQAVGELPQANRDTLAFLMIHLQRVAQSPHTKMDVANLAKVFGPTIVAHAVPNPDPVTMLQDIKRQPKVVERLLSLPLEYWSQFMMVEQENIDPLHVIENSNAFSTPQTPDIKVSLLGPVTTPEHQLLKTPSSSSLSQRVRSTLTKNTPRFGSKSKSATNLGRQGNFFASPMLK
The experiment in a line: MgcRacGAP GTPase-activating activity inhibitors, confirmation, biochemical, ADP Hunter fluorescence, primary and confirmatory (AID 624330). The class given is functional.

Another assay addresses Cytochrome P450 3A4 (Homo sapiens, UniProt P08684).
For assay [4], the target named is T3, Corticotropin-releasing factor receptor 2/Corticotropin-releasing factor-binding protein (Homo sapiens, UniProt P24387+Q13324).
T3 sequence (Q13324 whole entry): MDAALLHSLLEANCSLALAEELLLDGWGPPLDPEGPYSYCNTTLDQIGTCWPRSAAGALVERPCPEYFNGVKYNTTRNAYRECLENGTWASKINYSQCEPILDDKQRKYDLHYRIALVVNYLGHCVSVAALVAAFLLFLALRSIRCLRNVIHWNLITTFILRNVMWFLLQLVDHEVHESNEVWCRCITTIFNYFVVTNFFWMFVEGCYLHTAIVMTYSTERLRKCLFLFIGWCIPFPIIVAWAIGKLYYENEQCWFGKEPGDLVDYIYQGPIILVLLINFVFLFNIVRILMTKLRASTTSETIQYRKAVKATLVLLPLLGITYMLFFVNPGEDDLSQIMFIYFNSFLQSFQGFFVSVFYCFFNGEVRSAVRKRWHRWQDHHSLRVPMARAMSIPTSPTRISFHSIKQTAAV
T3 sequence (P24387 whole entry): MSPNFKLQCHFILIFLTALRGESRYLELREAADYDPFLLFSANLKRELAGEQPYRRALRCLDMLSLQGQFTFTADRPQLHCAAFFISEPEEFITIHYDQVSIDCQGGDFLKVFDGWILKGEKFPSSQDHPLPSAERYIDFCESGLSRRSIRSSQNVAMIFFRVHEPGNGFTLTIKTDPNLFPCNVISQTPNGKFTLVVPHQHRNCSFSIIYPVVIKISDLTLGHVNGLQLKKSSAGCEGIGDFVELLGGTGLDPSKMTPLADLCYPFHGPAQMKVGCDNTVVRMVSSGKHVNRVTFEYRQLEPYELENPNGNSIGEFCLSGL
The experiment in a line: activators of CRF receptor 2 with binding protein – uHTS hits, confirmation (AID 602473). The class given is functional. The note with it: read-out: EC50_Mean.

In assay [5] the test system is Streptococcus sp. 'group A'. The experiment in a line: growth inhibition of control SK(-) GAS strain, dose response, counter-screen for streptokinase expression inhibitor project, luminescence, kanamycin, BacTiterGlo, confirmation (AID 1900). Type of assay: functional, organism-based. In general terms: The purpose of a counterscreen is to sort out artefacts and off-target activity.

The target of another assay is T4, Streptokinase A (Streptococcus pyogenes serotype M1, UniProt P10520).
T4 sequence (P10520 whole entry): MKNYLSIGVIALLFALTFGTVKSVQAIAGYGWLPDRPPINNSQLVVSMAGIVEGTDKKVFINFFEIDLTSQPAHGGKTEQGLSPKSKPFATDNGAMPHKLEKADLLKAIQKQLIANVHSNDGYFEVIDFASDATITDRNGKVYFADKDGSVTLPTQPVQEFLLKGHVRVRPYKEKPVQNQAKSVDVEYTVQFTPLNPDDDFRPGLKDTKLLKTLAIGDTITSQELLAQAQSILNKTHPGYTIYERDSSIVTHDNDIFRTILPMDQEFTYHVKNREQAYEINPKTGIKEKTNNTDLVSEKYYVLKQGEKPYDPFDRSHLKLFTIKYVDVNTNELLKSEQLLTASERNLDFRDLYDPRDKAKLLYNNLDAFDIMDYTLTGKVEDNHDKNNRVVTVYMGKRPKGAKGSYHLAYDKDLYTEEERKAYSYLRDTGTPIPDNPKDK
Put plainly: S. pyogenes streptokinase expression inhibitors, potency, dose response, plasminogen activation absorbance, OD405 (AID 1914).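 Also: secreted streptokinase activity via plasminogen activation per viability signal from cell pellet.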 The class given is functional, Streptococcus pyogenes M1 GAS.

The next assay concerns Streptococcus. The experiment in a line: Group A Streptococcus viability loss, dose response, counter-screen for streptokinase expression inhibitor project, luminescence, BacTiterGlo (AID 1915).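 Also: potency for reduction of bacterial viability or growth.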 Type of assay: functional, organism-based.

SMILES strings stand for the structures. Activity calls are given as the source filed them.

Chain of Cytochrome P450 2D6 (P10635 whole entry): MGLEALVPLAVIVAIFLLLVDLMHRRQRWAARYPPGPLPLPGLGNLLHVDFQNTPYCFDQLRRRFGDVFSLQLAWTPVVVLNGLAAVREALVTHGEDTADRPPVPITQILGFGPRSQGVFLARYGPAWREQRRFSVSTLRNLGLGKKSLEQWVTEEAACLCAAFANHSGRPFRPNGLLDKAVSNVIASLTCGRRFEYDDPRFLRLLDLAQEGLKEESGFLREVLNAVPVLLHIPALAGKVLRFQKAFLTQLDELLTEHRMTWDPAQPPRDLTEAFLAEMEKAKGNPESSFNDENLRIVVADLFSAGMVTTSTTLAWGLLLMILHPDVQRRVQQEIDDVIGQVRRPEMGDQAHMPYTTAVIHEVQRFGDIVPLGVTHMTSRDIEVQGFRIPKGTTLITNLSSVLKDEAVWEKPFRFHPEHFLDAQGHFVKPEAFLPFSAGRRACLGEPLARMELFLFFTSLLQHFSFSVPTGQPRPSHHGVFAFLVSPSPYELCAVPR
Chain of Cytochrome P450 3A4 (P08684 whole entry): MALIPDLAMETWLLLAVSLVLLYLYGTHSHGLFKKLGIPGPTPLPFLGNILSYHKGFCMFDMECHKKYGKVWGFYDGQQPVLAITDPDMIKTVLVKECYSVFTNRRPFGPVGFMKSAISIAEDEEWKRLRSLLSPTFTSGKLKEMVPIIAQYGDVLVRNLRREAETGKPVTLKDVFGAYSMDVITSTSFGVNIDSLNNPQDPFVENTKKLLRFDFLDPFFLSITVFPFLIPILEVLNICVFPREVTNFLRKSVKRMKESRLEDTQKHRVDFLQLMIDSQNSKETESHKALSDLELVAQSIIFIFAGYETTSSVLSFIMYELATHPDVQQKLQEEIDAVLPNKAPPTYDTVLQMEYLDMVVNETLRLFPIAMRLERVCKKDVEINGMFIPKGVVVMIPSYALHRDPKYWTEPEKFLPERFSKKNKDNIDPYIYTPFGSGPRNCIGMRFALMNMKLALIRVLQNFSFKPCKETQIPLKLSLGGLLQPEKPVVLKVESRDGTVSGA
Chain of Cytochrome P450 2C19 (P33261 whole entry): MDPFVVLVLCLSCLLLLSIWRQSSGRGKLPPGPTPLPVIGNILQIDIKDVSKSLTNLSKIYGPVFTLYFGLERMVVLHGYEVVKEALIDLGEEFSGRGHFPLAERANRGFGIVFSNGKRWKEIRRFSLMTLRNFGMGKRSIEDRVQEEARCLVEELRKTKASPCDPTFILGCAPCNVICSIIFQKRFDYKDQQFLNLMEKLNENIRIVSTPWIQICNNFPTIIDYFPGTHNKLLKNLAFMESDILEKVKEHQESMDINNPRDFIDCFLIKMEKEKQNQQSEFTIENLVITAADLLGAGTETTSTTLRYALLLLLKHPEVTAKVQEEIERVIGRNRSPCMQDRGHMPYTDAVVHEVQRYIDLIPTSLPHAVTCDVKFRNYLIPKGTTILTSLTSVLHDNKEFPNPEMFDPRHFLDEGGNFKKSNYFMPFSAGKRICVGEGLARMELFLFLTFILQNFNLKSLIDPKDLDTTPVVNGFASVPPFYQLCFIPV

On to `CCO[C@H]1O[C@@H]([C@H](COCc2ccccc2)OCc2ccccc2)[C@@H](OCc2ccccc2)[C@H]1O`, for which the figures for the AC50 on Cytochrome P450 2C19, on Cytochrome P450 2D6 and on Cytochrome P450 1A2 were 5.01 µM (inconclusive), 15.8 µM (inconclusive) and 12.6 µM (inconclusive), respectively.

For `COc1ccc(C(=O)NCc2cc3ccccc3n2C)cc1`, the EC50 is 7.51 µM (active) in assay [1], 12 µM (active) in [2] and 9.84 µM (active) in the assay with H4. In the same order, the values of `COc1ccc(/C=C2\SC(=O)N(CCNC(=O)Cc3coc4cc(OC)ccc34)C2=O)cc1` are 23.4 µM (active), 11.5 µM (active) and 10.4 µM (active). On to `CC(=O)Nc1nnc(S)s1`, for which, in assay [3], the IC50 (commonly the concentration needed to halve the response being measured) was 66.2 µM (active). Regarding `Cc1ccc(/C=C2\SC(N3CCCCC3)=NC2=O)cc1`, the EC50 in assay [1] was 53.1 µM (active); in assay [2] it was 10.1 µM (active); in the assay on H4 it was 45.1 µM (active). For `COCCn1c(=O)c(-c2ccc(OC)cc2)nc2cnc(Nc3cccc(OC)c3)nc21`, the AC50 (as a rule, the concentration at which the activity in the assay is half-maximal) at Cytochrome P450 1A2 is 10 µM (inconclusive); at Cytochrome P450 3A4, 5.01 µM (inconclusive). With `CC(C)(C)c1ccc(C(=O)NCc2ccc(Cl)cc2)cc1`, the AC50 at Cytochrome P450 1A2 was 2 µM (inconclusive). As to `COc1ccc(NC2CCCN(C(=O)CCN3CCCC3=O)C2)cc1OC` (stereo not drawn), the IC50 in assay [3] was 293 µM (active). `COC(=O)[C@@]1(Cc2ccc(F)cc2)[C@H]2c3cc(C(=O)N4CCCC4)n(Cc4ccc(S(C)(=O)=O)cc4)c3C[C@H]2CN1C(=O)c1ccccc1`: the concentration at half-maximal activity (AC50) is 15.8 µM (inconclusive) on Cytochrome P450 1A2 and 1.26 µM (inconclusive) on Cytochrome P450 3A4. For `CC1Cc2ccccc2N1C(=O)CNCCCN(C)C` (stereo not drawn), in assay [3], the IC50 was 76.9 µM (active).

For `O=C(CSc1ccc2ccccc2n1)N/N=C/c1ccc(O)cc1`, the IC50 in assay [3] was 73.2 µM (active). For `O=C1NC(=O)C2(N1)C(=O)c1cccc3cccc2c13` (stereo not drawn), in [4], the EC50 is 8.84 µM (active).

Turning to `COc1cc(/C=C/C(=O)OCC(=O)N2CCN(S(=O)(=O)c3ccc(C)cc3C)CC2)ccc1O`, the IC50 in assay [3] was 88.2 µM (active). For `Cn1nc(C(F)(F)F)c(C(=O)Nc2ccc(F)cc2F)c1Sc1cccc(C(F)(F)F)c1`, the values for the AC50 on Cytochrome P450 2D6 and at Cytochrome P450 1A2 were 20 µM (inconclusive) and 15.8 µM (inconclusive), respectively.

On to `Cc1[nH]c2ccccc2c1C(=O)CN1CCCCC1C` (stereo not drawn), for which the EC50 in assay [4] was 9.87 µM (active).

For the compound `Fc1ccc(Br)cc1C1C=C(c2ccc(Br)s2)Nc2ncnn21` (stereo not drawn), the figures for the EC50 (in assay [5]; on Streptokinase A; in the assay on Streptococcus) were 4.65 µM (active), > 150 µM (not active) and 24.3 µM (active), respectively. For the compound `Cc1nn(-c2ccccc2)c(C)c1C(=O)OCC(=O)N(C)C1CCS(=O)(=O)C1` (stereo not drawn), the EC50 in assay [1] was 0.313 µM (active); in assay [2], 12.5 µM (active). As to `Cn1c(SCC(=O)N/N=C/c2cc([N+](=O)[O-])ccc2O)nnc1-c1ccccc1`, in assay [4], the EC50 is > 53 µM (inactive).

With `COC(=O)c1ccccc1NS(=O)(=O)c1ccc2c3c(cccc13)C(=O)N2`, the AC50 on Cytochrome P450 2D6 was 28.2 µM (inconclusive); at Cytochrome P450 1A2, 15.8 µM (inconclusive); on Cytochrome P450 3A4, 12.6 µM (inconclusive). Turning to `CCC/C=C(\CCC)C(NS(=O)(=O)c1cccc2cccnc12)c1ccc(C(=O)OC)cc1` (stereo not drawn), the AC50 on Cytochrome P450 1A2 is 6.31 µM (inconclusive). With `COc1cc(NC(=O)c2ccccc2)c(OC)cc1NC(=O)CN1CCN(c2ccccn2)CC1`, the figures for the AC50 at Cytochrome P450 1A2 and at Cytochrome P450 3A4 were 25.1 µM (inconclusive) and 12.6 µM (inconclusive), respectively. Turning to `Nc1ccc2c(c1Br)Cc1ccccc1-2`, the IC50 in assay [3] is 43.8 µM (active). `COC(=O)[C@H](C)[C@@H]1C[C@@]1(C)[C@@H](NC(=O)OCc1ccccc1)c1ccccc1`: the AC50 at Cytochrome P450 1A2 is 15.8 µM (inconclusive).

Regarding `NCCCCNS(=O)(=O)c1ccc2c(Cl)cccc2c1`, the AC50 was 31.6 µM (inconclusive) on Cytochrome P450 2D6, 39.8 µM (inconclusive) on Cytochrome P450 1A2 and 25.1 µM (inconclusive) at Cytochrome P450 3A4. As to `C=CCNC(=O)c1ccccc1NC(=O)c1ccc(Cl)c(S(=O)(=O)Nc2cc(C)ccc2C)c1`, the EC50 in assay [5] is 24.8 µM (active); on Streptokinase A, 41.7 µM (active); with Streptococcus it was > 150 µM (not active). With `O=C(NC(=S)Nc1ccc(N2CCOCC2)c(Cl)c1)c1cccs1`, the EC50 in [5] was 11 µM (active); at Streptokinase A it was > 150 µM (not active); in the assay with Streptococcus, 15.8 µM (active). Consider `CCOc1cc(CN2CCN(C(=O)CC(C)C)CC2)ccc1OC`, for which, in assay [3], the IC50 was 155 µM (active).

Take `Cc1cc(Cc2cc(C)c(N)cc2N)c(N)cc1N`: the AC50 at Cytochrome P450 1A2 was 2 µM (inconclusive). Regarding `COC(=O)C1C(O)=C(/C=N/c2ccc(N)cc2)C(=O)CC1(C)C` (stereo not drawn), in assay [3], the IC50 is 40 µM (active). For the compound `O=[N+]([O-])c1cc([N+](=O)[O-])c2nonc2c1Nc1ccccc1O`, the IC50 in [3] was 76.9 µM (active). In the case of `CCOc1ccc(Nc2nc(N3CCCCC3)nc(N3CCCCC3)n2)cc1`, the EC50 in assay [5] is 0.648 µM (active); on Streptokinase A, > 150 µM (not active); with Streptococcus it was 54.1 µM (active). As for `O=C(/C=C/c1cccnc1)c1ccc(NC(=O)c2cccc(Br)c2)cc1`, the figures for the AC50 at Cytochrome P450 2D6 and at Cytochrome P450 1A2 were 2 µM (inconclusive) and 14.1 µM (inconclusive), respectively.

(Values after ChEMBL document CHEMBL1201862, “PubChem BioAssay data set” (2004).)
